Test results taken from PubChem BioAssay (NCI).
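Cells were grown in 96-well plates and exposed to each compound for 48 hours at five concentrations; endpoints were interpolated linearly between bracketing concentrations, or set to the highest concentration if not reached. TGI denotes the concentration required for complete inhibition of growth.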

How the values were obtained:
Assay in all cases: NCI tumour cell line growth inhibition, 48 h
UACC-257 melanoma = system: UACC-257 melanoma
SF-295 CNS = system: SF-295 CNS
UO-31 renal = system: UO-31 renal
TK-10 renal = system: TK-10 renal
A549 NSCLC = system: A549 NSCLC
SK-MEL-28 melanoma = system: SK-MEL-28 melanoma
EKVX NSCLC = system: EKVX NSCLC
BT-549 breast = system: BT-549 breast
NCI-H226 lung = system: NCI-H226 lung
U251 CNS = system: U251 CNS
HT29 colon = system: HT29 colon
SW-620 colon = system: SW-620 colon
NCI-H23 lung = system: NCI-H23 lung
SF-539 CNS = system: SF-539 CNS
HCT-15 colon = system: HCT-15 colon
MDA-MB-435 = system: MDA-MB-435
M14 melanoma = system: M14 melanoma
MOLT-4 leukemia = system: MOLT-4 leukemia
MDA-N = system: MDA-N
SF-268 CNS = system: SF-268 CNS
NCI/ADR-RES ovarian = system: NCI/ADR-RES ovarian
K-562 leukemia = system: K-562 leukemia
786-0 renal = system: 786-0 renal
SNB-19 CNS = system: SNB-19 CNS
HOP-92 NSCLC = system: HOP-92 NSCLC
SN12C renal = system: SN12C renal
OVCAR-8 ovarian = system: OVCAR-8 ovarian
A498 renal = system: A498 renal
OVCAR-4 ovarian = system: OVCAR-4 ovarian
HCT-116 colon = system: HCT-116 colon
CCRF-CEM leukemia = system: CCRF-CEM leukemia
DU-145 prostate = system: DU-145 prostate
SR leukemia = system: SR leukemia
HS 578T breast = system: HS 578T breast
NCI-H460 lung = system: NCI-H460 lung
ACHN renal = system: ACHN renal
HL-60(TB) leukemia = system: HL-60(TB) leukemia
LOX IMVI melanoma = system: LOX IMVI melanoma
MALME-3M melanoma = system: MALME-3M melanoma
RPMI-8226 leukemia = system: RPMI-8226 leukemia
RXF 393 renal = system: RXF 393 renal
HCC-2998 colon = system: HCC-2998 colon
PC-3 prostate = system: PC-3 prostate
SK-MEL-5 melanoma = system: SK-MEL-5 melanoma
IGROV1 ovarian = system: IGROV1 ovarian

With `CC(C)(C)OC(=O)C1C(=O)NC(=O)CC1CC(OCc1ccccc1)C(COCc1ccccc1)OCc1ccccc1` (stereo not given) as the molecule, how does the TGI (UACC-257 melanoma) read?
The TGI was 53.4 µM.

What about the TGI (SF-295 CNS) of the same molecule?
Its TGI is greater than 100 µM.

And the TGI (UO-31 renal)?
The TGI was 6.02 µM.

And the TGI (TK-10 renal)?
Its TGI is greater than 100 µM.

And the TGI (A549 NSCLC)?
Its TGI is greater than 100 µM.

And the TGI (SK-MEL-28 melanoma)?
The TGI was greater than 100 µM.

What about the TGI (EKVX NSCLC) of the same molecule?
Its TGI is greater than 100 µM.

What about the TGI (BT-549 breast) of the same molecule?
The TGI was 32.8 µM.

What about the TGI (NCI-H226 lung) of the same molecule?
The TGI was 93.3 µM.

And the TGI (U251 CNS)?
The TGI was 24.8 µM.

And the TGI (HT29 colon)?
Its TGI is 14.3 µM.

What about the TGI (SW-620 colon) of the same molecule?
The TGI was greater than 100 µM.

And the TGI (NCI-H23 lung)?
The TGI was 45.7 µM.

What about the TGI (SF-539 CNS) of the same molecule?
The TGI was 39.8 µM.

And the TGI (HCT-15 colon)?
The TGI was 39.1 µM.

And the TGI (MDA-MB-435)?
The TGI was 20.7 µM.

What about the TGI (M14 melanoma) of the same molecule?
The TGI was greater than 100 µM.

What about the TGI (MOLT-4 leukemia) of the same molecule?
Its TGI is 13.1 µM.

And the TGI (MDA-N)?
The TGI was 79.1 µM.

What about the TGI (SF-268 CNS) of the same molecule?
The TGI was greater than 100 µM.

What about the TGI (NCI/ADR-RES ovarian) of the same molecule?
Its TGI is 82.8 µM.

And the TGI (K-562 leukemia)?
Its TGI is greater than 100 µM.

What about the TGI (786-0 renal) of the same molecule?
The TGI was greater than 100 µM.

And the TGI (SNB-19 CNS)?
The TGI was greater than 100 µM.

What about the TGI (HOP-92 NSCLC) of the same molecule?
The TGI was 46.2 µM.

What about the TGI (SN12C renal) of the same molecule?
Its TGI is greater than 100 µM.

What about the TGI (OVCAR-8 ovarian) of the same molecule?
Its TGI is greater than 100 µM.

And the TGI (A498 renal)?
The TGI was greater than 100 µM.

What about the TGI (OVCAR-4 ovarian) of the same molecule?
Its TGI is greater than 100 µM.

What about the TGI (HCT-116 colon) of the same molecule?
The TGI was greater than 100 µM.

And the TGI (CCRF-CEM leukemia)?
The TGI was greater than 100 µM.

And the TGI (DU-145 prostate)?
The TGI was 80.6 µM.

What about the TGI (SR leukemia) of the same molecule?
The TGI was 25 µM.

What about the TGI (HS 578T breast) of the same molecule?
Its TGI is 66.6 µM.

What about the TGI (NCI-H460 lung) of the same molecule?
Its TGI is greater than 100 µM.

And the TGI (ACHN renal)?
Its TGI is 70.4 µM.

What about the TGI (HL-60(TB) leukemia) of the same molecule?
Its TGI is 4.34 µM.

What about the TGI (LOX IMVI melanoma) of the same molecule?
The TGI was 25.5 µM.

And the TGI (MALME-3M melanoma)?
Its TGI is 11.5 µM.

What about the TGI (RPMI-8226 leukemia) of the same molecule?
Its TGI is 15.8 µM.

And the TGI (RXF 393 renal)?
Its TGI is 8.95 µM.

And the TGI (HCC-2998 colon)?
The TGI was 50.4 µM.

And the TGI (PC-3 prostate)?
Its TGI is 37.7 µM.

What about the TGI (SK-MEL-5 melanoma) of the same molecule?
Its TGI is 27.5 µM.

What about the TGI (IGROV1 ovarian) of the same molecule?
The TGI was greater than 100 µM.
